ChEMBL document CHEMBL4007462, “Chemical and bioactivity of flavanones obtained from roots of Dalea pazensis Rusby” (Bioorg Med Chem Lett, 2017)
Activity calls are given as the source filed them. The rule behind the calls is not given here.

Tests used:
[1] = molecular target: T1, Mushroom tyrosinase (Agaricus bisporus) (UniProt O42713+Q00024+C7FF04+C7FF05); assay: Inhibition of mushroom tyrosinase at 10 uM using L-tyrosine as substrate preincubated for 10 mins followed by substrate addition measured after 20 mins by spectrophotometric method relative to control
[2] = molecular target: T1, Mushroom tyrosinase (Agaricus bisporus); assay: Inhibition of mushroom tyrosinase at 100 uM using L-tyrosine as substrate preincubated for 10 mins followed by substrate addition measured after 20 mins by spectrophotometric method relative to control
[3] = molecular target: T2, Tyrosinase (Mus musculus) (UniProt P11344); assay: Inhibition of intracellular tyrosinase activity in mouse B16 cells at 0.05 uM using L-DOPA as substrate preincubated for 24 hrs followed by substrate addition and subsequent incubation for 20 mins measured at 1 min interval for 10 mins by MBTH reagent based spectrophotometric method relative to control; assay type: cell-based
T2 sequence (whole entry): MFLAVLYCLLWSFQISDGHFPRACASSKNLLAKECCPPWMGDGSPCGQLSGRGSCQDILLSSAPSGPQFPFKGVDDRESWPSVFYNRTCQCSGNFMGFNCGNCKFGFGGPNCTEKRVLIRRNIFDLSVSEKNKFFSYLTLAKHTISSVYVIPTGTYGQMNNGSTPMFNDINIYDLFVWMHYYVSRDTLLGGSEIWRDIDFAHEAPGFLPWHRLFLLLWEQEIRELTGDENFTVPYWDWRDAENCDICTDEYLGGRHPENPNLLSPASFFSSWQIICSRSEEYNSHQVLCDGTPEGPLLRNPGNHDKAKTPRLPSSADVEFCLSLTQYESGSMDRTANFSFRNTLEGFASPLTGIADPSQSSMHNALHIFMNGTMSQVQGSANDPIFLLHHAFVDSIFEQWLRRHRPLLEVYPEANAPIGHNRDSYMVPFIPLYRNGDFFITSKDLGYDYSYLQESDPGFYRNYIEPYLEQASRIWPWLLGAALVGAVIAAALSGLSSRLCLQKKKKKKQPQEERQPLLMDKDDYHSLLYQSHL

[4] = molecular target: T2, Tyrosinase (Mus musculus); assay: Inhibition of intracellular tyrosinase activity in mouse B16 cells at 5 uM using L-DOPA as substrate preincubated for 24 hrs followed by substrate addition and subsequent incubation for 20 mins measured at 1 min interval for 10 mins by MBTH reagent based spectrophotometric method relative to control; assay type: cell-based
Mushroom tyrosinase = Mushroom tyrosinase (Agaricus bisporus, UniProt O42713+Q00024+C7FF04+C7FF05); assay: Inhibition of mushroom tyrosinase using L-tyrosine as substrate preincubated for 10 mins followed by substrate addition measured after 20 mins by spectrophotometric method
Tyrosinase = molecular target: T3, Tyrosinase (Mus musculus, UniProt P11344)
T3 sequence (P11344 whole entry): T2 sequence (whole entry)
Description: Inhibition of tyrosinase in mouse B16 cells assessed as reduction in melanin production measured after 24 hrs

in vitro = settings: mouse, B16 cells
Description: Cytotoxicity against mouse B16 cells after 24 hrs by MTT assay

B16 = assay: Inhibition of melanin formation from L-DOPA in mouse B16 cells preincubated for 24 hrs followed by L-DOPA addition and subsequent incubation for 20 mins measured at 1 min interval for 10 mins by MBTH reagent based spectrophotometric method; assay type: functional, cell-based

## C=CC(C)(C)c1cc(C2CC(=O)c3c(O)cc(O)c(CC=C(C)C)c3O2)c(O)cc1O (stereo not drawn)
[1]
  inhibition: 90.5%
[2]
  inhibition: 95%
[3]
  inhibition: 20.6%
[4]
  inhibition: 31.8%
Mushroom tyrosinase
  IC50: 2.32 µM
Tyrosinase
  IC50: 1 µM
In vitro
  MNTC at 24 h: 10 µM

## C=CC(C)(C)c1cc(C2CC(=O)c3c(cc(O)c(CC=C(C)C)c3O)O2)c(OC)cc1O (stereo not drawn)
[1]
  inhibition: 0%
[2]
  inhibition: 0%
B16
  inhibition: Active
Tyrosinase
  IC50: 5 µM
In vitro
  MNTC at 24 h: 50 µM

## C=CC(C)(C)c1cc(C2CC(=O)c3c(O)cc(O)c(CC=C(C)C)c3O2)c(OC)cc1O (stereo not drawn)
[1]
  inhibition: 21.5%
[2]
  inhibition: 63.8%
B16
  inhibition: Active
Mushroom tyrosinase
  IC50: 49.8 µM
Tyrosinase
  IC50: 5 µM
In vitro
  MNTC at 24 h: 5 µM

## CC(C)=CCc1c(O)cc2c(c1O)C(=O)CC(c1ccc(O)c(O)c1CC=C(C)C)O2 (stereo not drawn)
[1]
  inhibition: 2.84%
[2]
  inhibition: 9.4%
B16
  inhibition: Active
Tyrosinase
  IC50: 0.75 µM
In vitro
  MNTC at 24 h: 1 µM
